Key:
Assay in all cases: ScanMAX Kinase analysis panel (DiscoverX)
Type in all cases: binding
FLT3(D835H) = molecular target: T1, FLT3(D835H) (Homo sapiens, UniProt P36888, D835H); settings: read-out: adjusted percentage (% control)
T1 construct: purchased DiscoverX ScanMAX Kinase analysis panel
Experimental: (§1) The following experiment was performed in order to evaluate the inhibitory activity of the compound according to the present invention against more enzymes. Specifically, for Examples 1 and 3 selected among the Example compounds of the present invention, the enzyme (kinase) selectivity was set to be measured by commissioning DiscoverX, and an experiment was conducted using a ScanMAX™ Kinase analysis panel. In this case, the concentration of the drug treated with the enzyme was set to 1 μM in DMSO, the adjusted percentage (% control) was determined in the same manner as in the following Equation 1, and the results are shown in the following Table 3. (Example compound−Positive control)/(Negative control−Positive control)×100 [Equation 1]
(§2) In addition, the enzyme selectivity of the present invention was determined to be active against the corresponding enzyme when the adjusted percentage was <35% (that is, less than 35%).

PDGFRB = molecular target: T2, PDGFRB (Homo sapiens, UniProt P09619); settings: read-out: adjusted percentage (% control)
T2 construct: purchased DiscoverX ScanMAX Kinase analysis panel
Experimental: as §1, §2

[1] = molecular target: T3, ABL1(Q252H)-phosphorylated (Homo sapiens, UniProt P00519, Q252H); settings: read-out: adjusted percentage (% control)
T3 construct: purchased DiscoverX
Experimental: as §1, §2

EGFR(T790M) = molecular target: T4, EGFR(T790M) (Homo sapiens, UniProt P00533, T790M); settings: read-out: adjusted percentage (% control)
T4 construct: purchased DiscoverX ScanMAX Kinase analysis panel
Experimental: as §1, §2

GCN2(Kin.Dom.2, S808G) = molecular target: T5, GCN2(Kin.Dom.2, S808G) (Homo sapiens, UniProt Q9P2K8, S808G); settings: read-out: adjusted percentage (% control)
T5 construct: GCN2(Kin.Dom.2,S808G); purchased DiscoverX ScanMAX Kinase analysis panel
Experimental: as §1, §2

[2] = molecular target: T6, ABL1(Y253F)-phosphorylated (Homo sapiens, UniProt P00519, Y253F); settings: read-out: adjusted percentage (% control)
T6 construct: purchased DiscoverX
Experimental: as §1, §2

TRKB = molecular target: T7, TRKB (Homo sapiens, UniProt Q16620); settings: read-out: adjusted percentage (% control)
T7 construct: purchased DiscoverX ScanMAX Kinase analysis panel
Experimental: as §1, §2

KIT(A829P) = molecular target: T8, KIT(A829P) (Homo sapiens, UniProt P10721, A829P); settings: read-out: adjusted percentage (% control)
T8 construct: purchased DiscoverX ScanMAX Kinase analysis panel
Experimental: as §1, §2

FGFR1 = molecular target: T9, FGFR1 (Homo sapiens, UniProt P11362); settings: read-out: adjusted percentage (% control)
T9 construct: purchased DiscoverX ScanMAX Kinase analysis panel
Experimental: as §1, §2

[3] = molecular target: T10, EGFR(L747-E749del, A750P) (Homo sapiens, UniProt P00533, A750P/DEL747-749); settings: read-out: adjusted percentage (% control)
T10 construct: purchased DiscoverX
Experimental: as §1, §2

[4] = molecular target: T11, JAK1(JH2domain-pseudokinase) (Homo sapiens, UniProt P23458); settings: read-out: adjusted percentage (% control)
T11 construct: JAK1(JH2domain-pseudokinase); purchased DiscoverX ScanMAX Kinase analysis panel
Experimental: as §1, §2

DDR1 = molecular target: T12, DDR1 (Homo sapiens, UniProt Q08345); settings: read-out: adjusted percentage (% control)
T12 construct: purchased DiscoverX
Experimental: as §1, §2

ICK = molecular target: T13, ICK (Homo sapiens, UniProt Q9UPZ9); settings: read-out: adjusted percentage (% control)
T13 construct: purchased DiscoverX ScanMAX Kinase analysis panel
Experimental: as §1, §2

FLT3(D835V) = molecular target: T14, FLT3(D835V) (Homo sapiens, UniProt P36888, D835V); settings: read-out: adjusted percentage (% control)
T14 construct: purchased DiscoverX ScanMAX Kinase analysis panel
Experimental: as §1, §2

FLT3(D835Y) = molecular target: T15, FLT3(D835Y) (Homo sapiens, UniProt P36888, D835Y); settings: read-out: adjusted percentage (% control)
T15 construct: purchased DiscoverX ScanMAX Kinase analysis panel
Experimental: as §1, §2

FLT3-autoinhibited = molecular target: T16, FLT3-autoinhibited (Homo sapiens, UniProt P36888); settings: read-out: adjusted percentage (% control)
T16 construct: purchased DiscoverX ScanMAX Kinase analysis panel
Experimental: as §1, §2

[5] = molecular target: T17, ABL1(T315I)-nonphosphorylated (Homo sapiens, UniProt P00519, T315I); settings: read-out: adjusted percentage (% control)
T17 construct: purchased DiscoverX
Experimental: as §1, §2

RET(M918T) = molecular target: T18, RET(M918T) (Homo sapiens, UniProt P07949, M918T); settings: read-out: adjusted percentage (% control)
T18 construct: purchased DiscoverX ScanMAX Kinase analysis panel
Experimental: as §1, §2

[6] = molecular target: T19, JAK1(JH1domain-catalytic) (Homo sapiens, UniProt P23458); settings: read-out: adjusted percentage (% control)
T19 construct: JAK1(JH1domain-catalytic); purchased DiscoverX ScanMAX Kinase analysis panel
Experimental: as §1, §2

FGR = molecular target: T20, FGR (Homo sapiens, UniProt P09769); settings: read-out: adjusted percentage (% control)
T20 construct: purchased DiscoverX ScanMAX Kinase analysis panel
Experimental: as §1, §2

KIT(V559D) = molecular target: T21, KIT(V559D) (Homo sapiens, UniProt P10721, V559D); settings: read-out: adjusted percentage (% control)
T21 construct: purchased DiscoverX ScanMAX Kinase analysis panel
Experimental: as §1, §2

ITK = molecular target: T22, ITK (Homo sapiens, UniProt Q08881); settings: read-out: adjusted percentage (% control)
T22 construct: purchased DiscoverX ScanMAX Kinase analysis panel
Experimental: as §1, §2

MAP3K2 = molecular target: T23, MAP3K2 (Homo sapiens, UniProt Q9Y2U5); settings: read-out: adjusted percentage (% control)
T23 construct: purchased DiscoverX ScanMAX Kinase analysis panel
Experimental: as §1, §2

EGFR(L858R, T790M) = molecular target: T24, EGFR(L858R, T790M) (Homo sapiens, UniProt P00533, L858R/T790M); settings: read-out: adjusted percentage (% control)
T24 construct: purchased DiscoverX
Experimental: as §1, §2

FLT3(ITD) = settings: 1 μM
Experimental: as §1, §2

DAPK3 = molecular target: T25, DAPK3 (Homo sapiens, UniProt O43293); settings: read-out: adjusted percentage (% control)
T25 construct: purchased DiscoverX
Experimental: as §1, §2

KIT(D816V) = molecular target: T26, KIT(D816V) (Homo sapiens, UniProt P10721, D816V); settings: read-out: adjusted percentage (% control)
T26 construct: purchased DiscoverX ScanMAX Kinase analysis panel
Experimental: as §1, §2

CSNK2A2 = molecular target: T27, CSNK2A2 (Homo sapiens, UniProt P19784); settings: read-out: adjusted percentage (% control)
T27 construct: purchased DiscoverX
Experimental: as §1, §2

FLT3(ITD, D835V) = settings: 1 μM
Experimental: as §1, §2

MEK2 = molecular target: T28, MEK2 (Homo sapiens, UniProt P36507); settings: read-out: adjusted percentage (% control)
T28 construct: purchased DiscoverX ScanMAX Kinase analysis panel
Experimental: as §1, §2

[7] = molecular target: T29, JAK3(JH1domain-catalytic) (Homo sapiens, UniProt P52333); settings: read-out: adjusted percentage (% control)
T29 construct: JAK3 (JH1domain-catalytic); purchased DiscoverX ScanMAX Kinase analysis panel
Experimental: as §1, §2

FLT3(R834Q) = molecular target: T30, FLT3(R834Q) (Homo sapiens, UniProt P36888, R834Q); settings: read-out: adjusted percentage (% control)
T30 construct: purchased DiscoverX ScanMAX Kinase analysis panel
Experimental: as §1, §2

MEK3 = molecular target: T31, MEK3 (Homo sapiens, UniProt P46734); settings: read-out: adjusted percentage (% control)
T31 construct: purchased DiscoverX ScanMAX Kinase analysis panel
Experimental: as §1, §2

FLT3 = molecular target: T32, FLT3 (Homo sapiens, UniProt P36888); settings: read-out: adjusted percentage (% control)
T32 construct: purchased DiscoverX ScanMAX Kinase analysis panel
Experimental: as §1, §2

T26 sequence (P10721 26-976 D816V): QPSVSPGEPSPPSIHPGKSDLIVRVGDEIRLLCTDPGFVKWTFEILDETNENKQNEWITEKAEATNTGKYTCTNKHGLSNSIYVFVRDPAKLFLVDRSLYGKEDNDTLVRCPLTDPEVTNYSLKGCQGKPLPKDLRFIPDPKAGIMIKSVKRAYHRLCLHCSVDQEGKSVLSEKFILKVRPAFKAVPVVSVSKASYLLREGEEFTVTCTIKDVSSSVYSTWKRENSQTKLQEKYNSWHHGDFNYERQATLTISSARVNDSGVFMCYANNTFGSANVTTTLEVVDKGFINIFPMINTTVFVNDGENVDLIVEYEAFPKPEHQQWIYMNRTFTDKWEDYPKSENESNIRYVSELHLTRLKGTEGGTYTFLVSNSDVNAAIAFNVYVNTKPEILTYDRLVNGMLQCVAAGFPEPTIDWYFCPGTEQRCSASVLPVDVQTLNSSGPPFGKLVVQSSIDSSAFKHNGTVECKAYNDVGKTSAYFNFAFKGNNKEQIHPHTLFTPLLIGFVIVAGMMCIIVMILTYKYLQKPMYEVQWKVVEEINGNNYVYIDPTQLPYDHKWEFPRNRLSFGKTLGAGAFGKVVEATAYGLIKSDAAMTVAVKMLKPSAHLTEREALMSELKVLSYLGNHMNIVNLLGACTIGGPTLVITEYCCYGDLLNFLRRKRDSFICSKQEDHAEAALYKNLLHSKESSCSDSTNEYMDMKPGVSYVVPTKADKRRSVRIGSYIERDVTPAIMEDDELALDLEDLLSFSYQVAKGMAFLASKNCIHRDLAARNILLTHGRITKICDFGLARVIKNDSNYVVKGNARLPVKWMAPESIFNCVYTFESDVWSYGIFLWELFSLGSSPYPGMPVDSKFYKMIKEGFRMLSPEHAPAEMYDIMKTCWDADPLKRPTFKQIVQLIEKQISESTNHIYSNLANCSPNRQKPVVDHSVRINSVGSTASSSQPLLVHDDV
T23 sequence (Q9Y2U5 whole entry): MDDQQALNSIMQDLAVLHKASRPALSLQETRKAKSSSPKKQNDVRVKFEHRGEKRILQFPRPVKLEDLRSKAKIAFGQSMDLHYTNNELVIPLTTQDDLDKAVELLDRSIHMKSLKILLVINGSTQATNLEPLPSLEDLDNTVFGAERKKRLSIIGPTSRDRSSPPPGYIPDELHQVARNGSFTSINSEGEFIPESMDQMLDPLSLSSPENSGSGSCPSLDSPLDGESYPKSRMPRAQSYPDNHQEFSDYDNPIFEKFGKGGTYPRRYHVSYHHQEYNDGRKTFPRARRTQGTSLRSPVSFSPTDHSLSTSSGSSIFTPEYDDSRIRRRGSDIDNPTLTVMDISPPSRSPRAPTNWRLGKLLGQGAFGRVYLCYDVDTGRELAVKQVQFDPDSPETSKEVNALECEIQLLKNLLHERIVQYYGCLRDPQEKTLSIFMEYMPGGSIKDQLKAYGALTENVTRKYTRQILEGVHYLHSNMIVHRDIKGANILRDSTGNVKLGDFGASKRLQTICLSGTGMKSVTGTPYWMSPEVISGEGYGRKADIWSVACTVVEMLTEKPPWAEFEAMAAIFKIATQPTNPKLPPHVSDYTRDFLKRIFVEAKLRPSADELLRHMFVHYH
T4 sequence (P00533 25-1210 T790M): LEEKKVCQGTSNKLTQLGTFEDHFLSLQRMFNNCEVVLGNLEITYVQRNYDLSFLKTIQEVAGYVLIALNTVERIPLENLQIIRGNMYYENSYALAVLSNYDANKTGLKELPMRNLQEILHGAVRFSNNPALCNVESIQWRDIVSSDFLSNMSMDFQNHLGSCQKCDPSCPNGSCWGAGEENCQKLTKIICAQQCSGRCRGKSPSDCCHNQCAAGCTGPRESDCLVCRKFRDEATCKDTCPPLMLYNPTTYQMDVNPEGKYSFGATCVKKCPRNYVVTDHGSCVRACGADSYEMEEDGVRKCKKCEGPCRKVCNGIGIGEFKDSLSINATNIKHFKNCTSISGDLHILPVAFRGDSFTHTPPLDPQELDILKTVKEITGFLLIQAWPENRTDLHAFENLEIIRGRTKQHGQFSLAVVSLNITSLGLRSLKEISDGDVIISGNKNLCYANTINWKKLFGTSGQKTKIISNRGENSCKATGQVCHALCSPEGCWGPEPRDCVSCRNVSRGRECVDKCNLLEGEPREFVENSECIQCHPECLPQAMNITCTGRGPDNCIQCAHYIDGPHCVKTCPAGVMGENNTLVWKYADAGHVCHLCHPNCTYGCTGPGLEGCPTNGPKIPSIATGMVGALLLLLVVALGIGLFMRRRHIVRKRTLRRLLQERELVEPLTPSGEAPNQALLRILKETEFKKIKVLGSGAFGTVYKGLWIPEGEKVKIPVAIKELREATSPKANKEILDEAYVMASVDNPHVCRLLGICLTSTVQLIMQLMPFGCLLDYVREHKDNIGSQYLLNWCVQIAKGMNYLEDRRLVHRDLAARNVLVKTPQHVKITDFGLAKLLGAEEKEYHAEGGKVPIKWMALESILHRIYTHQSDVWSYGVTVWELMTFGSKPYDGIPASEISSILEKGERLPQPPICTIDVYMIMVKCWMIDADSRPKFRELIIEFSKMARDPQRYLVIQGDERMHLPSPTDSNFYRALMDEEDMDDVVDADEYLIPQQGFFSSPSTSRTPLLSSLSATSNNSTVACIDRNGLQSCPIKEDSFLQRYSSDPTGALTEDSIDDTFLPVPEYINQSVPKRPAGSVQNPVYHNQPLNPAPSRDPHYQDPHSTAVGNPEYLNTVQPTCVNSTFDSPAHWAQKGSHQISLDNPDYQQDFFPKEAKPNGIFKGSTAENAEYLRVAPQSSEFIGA
T19 sequence (P23458 875-1153 limits assumed): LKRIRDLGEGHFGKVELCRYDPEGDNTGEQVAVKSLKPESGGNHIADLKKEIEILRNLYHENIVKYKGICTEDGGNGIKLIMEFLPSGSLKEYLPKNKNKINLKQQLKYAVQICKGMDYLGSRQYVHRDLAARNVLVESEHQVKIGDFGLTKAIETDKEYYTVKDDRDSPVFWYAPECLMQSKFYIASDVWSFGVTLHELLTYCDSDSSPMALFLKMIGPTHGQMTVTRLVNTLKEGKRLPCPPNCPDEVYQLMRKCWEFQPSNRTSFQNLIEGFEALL
T21 sequence (P10721 26-976 V559D): as the sequence (P10721 26-976 D816V) above, with V534D, V791D counted along it
T11 sequence (P23458 583-855 limits assumed): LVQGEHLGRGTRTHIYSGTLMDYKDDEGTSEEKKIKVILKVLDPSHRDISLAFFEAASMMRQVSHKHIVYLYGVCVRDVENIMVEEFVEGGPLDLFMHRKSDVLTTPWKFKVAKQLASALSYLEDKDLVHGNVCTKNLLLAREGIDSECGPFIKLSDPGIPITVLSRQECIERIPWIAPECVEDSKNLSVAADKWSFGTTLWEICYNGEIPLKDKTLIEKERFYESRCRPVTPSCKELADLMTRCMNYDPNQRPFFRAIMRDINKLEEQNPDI
T10 sequence (P00533 with tags, fused parts or gaps DEL747-749/A750P): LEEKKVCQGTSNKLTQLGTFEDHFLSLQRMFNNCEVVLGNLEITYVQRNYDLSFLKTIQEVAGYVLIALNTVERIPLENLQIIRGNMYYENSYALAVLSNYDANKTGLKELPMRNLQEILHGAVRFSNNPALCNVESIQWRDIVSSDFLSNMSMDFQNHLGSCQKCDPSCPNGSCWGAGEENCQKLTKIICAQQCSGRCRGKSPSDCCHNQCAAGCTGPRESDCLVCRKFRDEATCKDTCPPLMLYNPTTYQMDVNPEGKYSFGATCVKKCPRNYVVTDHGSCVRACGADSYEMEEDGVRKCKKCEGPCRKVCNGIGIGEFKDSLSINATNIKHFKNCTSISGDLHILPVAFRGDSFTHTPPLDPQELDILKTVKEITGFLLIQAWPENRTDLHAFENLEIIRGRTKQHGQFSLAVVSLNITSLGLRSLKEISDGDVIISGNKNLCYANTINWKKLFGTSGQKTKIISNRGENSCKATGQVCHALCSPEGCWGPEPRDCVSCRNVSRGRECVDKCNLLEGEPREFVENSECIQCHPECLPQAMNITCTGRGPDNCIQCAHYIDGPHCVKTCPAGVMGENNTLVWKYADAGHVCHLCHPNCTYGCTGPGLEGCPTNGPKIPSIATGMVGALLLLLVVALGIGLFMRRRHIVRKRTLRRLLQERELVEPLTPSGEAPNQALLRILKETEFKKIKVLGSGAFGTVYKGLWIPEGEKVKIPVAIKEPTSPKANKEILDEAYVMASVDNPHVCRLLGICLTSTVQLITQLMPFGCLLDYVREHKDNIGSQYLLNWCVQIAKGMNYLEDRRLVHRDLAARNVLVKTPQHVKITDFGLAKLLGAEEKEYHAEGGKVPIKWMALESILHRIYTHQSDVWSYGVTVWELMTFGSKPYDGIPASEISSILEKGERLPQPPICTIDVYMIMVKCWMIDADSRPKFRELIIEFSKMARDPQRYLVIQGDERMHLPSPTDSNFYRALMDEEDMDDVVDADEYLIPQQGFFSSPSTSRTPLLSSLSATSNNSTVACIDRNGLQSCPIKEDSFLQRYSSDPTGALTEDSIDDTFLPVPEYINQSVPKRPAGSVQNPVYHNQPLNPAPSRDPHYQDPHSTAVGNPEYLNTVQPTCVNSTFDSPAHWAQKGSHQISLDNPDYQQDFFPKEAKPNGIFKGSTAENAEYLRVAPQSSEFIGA
T28 sequence (P36507 whole entry): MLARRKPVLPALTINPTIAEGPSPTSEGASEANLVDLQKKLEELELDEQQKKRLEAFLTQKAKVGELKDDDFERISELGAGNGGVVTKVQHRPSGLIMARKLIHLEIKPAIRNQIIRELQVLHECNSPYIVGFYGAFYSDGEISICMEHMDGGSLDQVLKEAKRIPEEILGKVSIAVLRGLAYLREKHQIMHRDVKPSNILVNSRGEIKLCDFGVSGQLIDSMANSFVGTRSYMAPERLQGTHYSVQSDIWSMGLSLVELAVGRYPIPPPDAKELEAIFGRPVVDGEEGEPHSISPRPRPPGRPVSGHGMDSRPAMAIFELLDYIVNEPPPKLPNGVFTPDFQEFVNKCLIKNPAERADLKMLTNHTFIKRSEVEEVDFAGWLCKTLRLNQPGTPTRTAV
T8 sequence (P10721 26-976 A829P): as the sequence (P10721 26-976 D816V) above, with V791D, A804P counted along it

| SMILES | remaining binding at 1 µM (FLT3(D835H)) | remaining binding at 1 µM (PDGFRB) | remaining binding at 1 µM [1] | remaining binding at 1 µM (EGFR(T790M)) | remaining binding at 1 µM (GCN2(Kin.Dom.2, S808G)) | remaining binding at 1 µM [2] | remaining binding at 1 µM (TRKB) | remaining binding at 1 µM (KIT(A829P)) | remaining binding at 1 µM (FGFR1) | remaining binding at 1 µM [3] | remaining binding at 1 µM [4] | remaining binding at 1 µM (DDR1) | remaining binding at 1 µM (ICK) | remaining binding at 1 µM (FLT3(D835V)) | remaining binding at 1 µM (FLT3(D835Y)) | remaining binding at 1 µM (FLT3-autoinhibited) | remaining binding at 1 µM [5] | remaining binding at 1 µM (RET(M918T)) | remaining binding at 1 µM [6] | remaining binding at 1 µM (FGR) | other results |
| --- | --- | --- | --- | --- | --- | --- | --- | --- | --- | --- | --- | --- | --- | --- | --- | --- | --- | --- | --- | --- | --- |
| COc1ccc(CN2C3CC2CN(c2ccc(-c4nc(Nc5cc(C)[nH]n5)c5occc5n4)cn2)C3)cn1 [Example 1, 2-(6-(6-((6-methoxypyridin-3-yl)methyl)-3,6-diazabicyclo[3.1.1]heptan-3-yl)pyridin-3-yl)-N-(5-methyl-1H-pyrazol-3-yl)furo[3,2-d]pyrimidin-4-amine] | 6.7% | 15% | 15% | 8.1% | 8% | 20% | 1.6% | 2.8% | 11% | 16% | 21% | 25% | 33% | 1.3% | 1.5% | 9.8% | 20% | 0.9% | 15% | 12% | remaining binding at 1 µM (KIT(V559D)): 34%; remaining binding at 1 µM (ITK): 2%; remaining binding at 1 µM (MAP3K2): 27%; remaining binding at 1 µM (EGFR(L858R, T790M)): 6.9%; adjusted percentage (% control) (FLT3(ITD)): 4.9%; remaining binding at 1 µM (DAPK3): 19%; remaining binding at 1 µM (KIT(D816V)): 32%; remaining binding at 1 µM (CSNK2A2): 0%; adjusted percentage (% control) (FLT3(ITD, D835V)): 0%; remaining binding at 1 µM (MEK2): 24%; remaining binding at 1 µM [7]: 0.55%; remaining binding at 1 µM (FLT3(R834Q)): 23%; remaining binding at 1 µM (MEK3): 27%; remaining binding at 1 µM (FLT3): 1.2% |
| COc1ccc(CN2C3CC2CN(c2ccc(-c4nc(Nc5cc(C)[nH]n5)c5ccccc5n4)cn2)C3)cn1 [Example 3, 2-(6-(6-((6-methoxypyridin-3-yl)methyl)-3,6-diazabicyclo [3.1.1]heptan-3-yl)pyridin-3-yl)-N-(5-methyl-1H-pyrazol-3-yl)quinazolin-4-amine] | 2.7% | 2.7% | 17% | 16% | 0.2% | 21% | 2.1% | 11% | 4.3% | 17% | 2.9% | 12% | 28% | 0% | 0.55% | 11% | 2.9% | 0.25% | 9.7% | 8.4% | remaining binding at 1 µM (KIT(V559D)): 4.2%; remaining binding at 1 µM (ITK): 1.6%; remaining binding at 1 µM (MAP3K2): 7.4%; remaining binding at 1 µM (EGFR(L858R, T790M)): 6.6%; adjusted percentage (% control) (FLT3(ITD)): 1.2%; remaining binding at 1 µM (DAPK3): 34%; remaining binding at 1 µM (KIT(D816V)): 6.5%; remaining binding at 1 µM (CSNK2A2): 0.3%; adjusted percentage (% control) (FLT3(ITD, D835V)): 0%; remaining binding at 1 µM (MEK2): 17%; remaining binding at 1 µM [7]: 1.9%; remaining binding at 1 µM (FLT3(R834Q)): 9.1%; remaining binding at 1 µM (MEK3): 4.9%; remaining binding at 1 µM (FLT3): 0.55% |
